According to ChEMBL document CHEMBL5050844 (2019):
pIC50, pKd: −log10 of the molar value.

Key:
[1] = Induction of anti-CD3 antibodies-stimulated human T cell activation at 1 uM assessed fold increase in CD25 expression measured by ELISA assay; assay type: functional, T cell line; also: reference of the scale not given here
[2] = Induction of anti-CD3 antibodies-stimulated human T cell activation at 8 uM assessed fold increase in IL-2 secretion measured by ELISA assay; assay type: functional, T cell line; also: reference of the scale not given here
[3] = Induction of anti-CD3/CD28 antibodies-stimulated human T cell activation at 0.3 uM assessed fold increase in IL-2 secretion measured by ELISA assay; assay type: functional, T cell line
[4] = Induction of anti-CD3/CD28 antibodies-stimulated human T cell activation at 1 uM assessed fold increase in IL-2 secretion measured by ELISA assay; assay type: functional, T cell line
[5] = Induction of anti-CD3/CD28 antibodies-stimulated human T cell activation at 1 uM assessed fold increase in CD25 expression measured by ELISA assay; assay type: functional, T cell line
[6] = molecular target: T1, E3 ubiquitin-protein ligase CBL-B (Homo sapiens, UniProt Q13191); experiment: Binding affinity towards N-terminal biotinylated Avi-tagged human CBL-B (36 to 427 residues) measured by surface plasmon resonance assay
[7] = Induction of anti-CD3 antibodies-stimulated human T cell activation at 1 uM assessed fold increase in IL-2 secretion measured by ELISA assay; assay type: functional, T cell line; also: reference of the scale not given here
[8] = Induction of anti-CD3/CD28 antibodies-stimulated human T cell activation at 4 uM assessed fold increase in CD25 expression measured by ELISA assay; assay type: functional, T cell line
[9] = molecular target: T1, E3 ubiquitin-protein ligase CBL-B; experiment: Inhibition of N-terminal Avi-tagged human CBL-B (36 to 427 residues) incubated with 60 nM Src kinase for 1.5 hrs followed by incubation with fluorescently labeled UbcH5B-Ub for 1 hr and measured by TR-FRET assay; assay type: single protein
[10] = Induction of anti-CD3/CD28 antibodies-stimulated human T cell activation at 0.3 uM assessed fold increase in CD25 expression measured by ELISA assay; assay type: functional, T cell line
[11] = Induction of anti-CD3 antibodies-stimulated human T cell activation at 8 uM assessed fold increase in CD25 expression measured by ELISA assay; assay type: functional, T cell line; also: reference of the scale not given here
[12] = Induction of anti-CD3/CD28 antibodies-stimulated human T cell activation at 4 uM assessed fold increase in IL-2 secretion measured by ELISA assay; assay type: functional, T cell line

T1 sequence (Q13191 whole entry, the tested form may be a part): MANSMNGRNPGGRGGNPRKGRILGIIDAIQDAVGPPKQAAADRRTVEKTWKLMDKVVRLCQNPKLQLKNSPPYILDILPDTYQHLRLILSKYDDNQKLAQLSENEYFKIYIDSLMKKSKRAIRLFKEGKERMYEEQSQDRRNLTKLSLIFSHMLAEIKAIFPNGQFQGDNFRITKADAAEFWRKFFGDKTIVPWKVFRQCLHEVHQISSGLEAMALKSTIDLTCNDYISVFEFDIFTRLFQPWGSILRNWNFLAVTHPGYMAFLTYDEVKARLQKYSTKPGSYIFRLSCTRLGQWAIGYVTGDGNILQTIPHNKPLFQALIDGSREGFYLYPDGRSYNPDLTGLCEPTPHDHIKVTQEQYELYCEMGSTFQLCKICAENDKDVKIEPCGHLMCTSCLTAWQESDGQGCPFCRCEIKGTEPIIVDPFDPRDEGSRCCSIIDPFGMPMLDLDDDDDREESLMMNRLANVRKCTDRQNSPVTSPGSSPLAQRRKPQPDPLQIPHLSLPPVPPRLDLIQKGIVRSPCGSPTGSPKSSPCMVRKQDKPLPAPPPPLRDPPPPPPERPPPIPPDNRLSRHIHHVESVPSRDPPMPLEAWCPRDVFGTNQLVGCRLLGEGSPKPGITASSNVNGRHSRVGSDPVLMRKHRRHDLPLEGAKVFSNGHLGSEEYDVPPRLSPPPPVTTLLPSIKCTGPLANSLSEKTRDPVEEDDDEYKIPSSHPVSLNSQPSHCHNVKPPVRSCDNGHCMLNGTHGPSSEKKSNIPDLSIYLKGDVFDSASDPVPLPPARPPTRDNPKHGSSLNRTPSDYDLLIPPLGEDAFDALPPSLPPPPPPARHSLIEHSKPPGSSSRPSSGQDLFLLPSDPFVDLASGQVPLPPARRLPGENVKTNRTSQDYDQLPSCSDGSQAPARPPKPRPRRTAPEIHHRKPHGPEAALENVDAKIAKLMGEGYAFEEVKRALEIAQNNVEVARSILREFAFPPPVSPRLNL

Row | SMILES | fold change (FC) [1] | fold change (FC) [2] | fold change (FC) [3] | fold change (FC) [4] | fold change (FC) [5] | pKd [6] | fold change (FC) [7] | fold change (FC) [8] | pIC50 [9] | fold change (FC) [10] | fold change (FC) [11] | fold change (FC) [12]
1 | CNc1cc([C@H](C)Cc2nncn2C)cc(N2Cc3c(cccc3C(F)(F)F)C2=O)n1 | 0.601 | 0.151 | 1.01 | 1.01 | 1.01 | > 7.00 | 0.051 | 1.31 | > 7.00 | 1.01 | >=1.001 | 5
2 | C[C@H](Cc1nncn1C)c1cccc(NC(=O)c2ccc(CO)c(C3CC3)n2)c1 | >=1.001 | >=0.201 | >=7.5 | >=7.5 | 1.51 | > 7.00 | >=0.201 | 1.51 | > 7.00 | 1.31 | >=1.001 | >=7.5
3 | Cc1n[nH]c(C)c1-c1cc2c(c(C(F)(F)F)c1)CN(c1cccc([C@H](C)Cc3nncn3C)c1)C2=O | >=1.001 | >=0.201 | 2.51 | >=7.5 | 1.51 | > 7.00 | >=0.201 | >=1.76 | > 7.00 | 1.31 | >=1.001 | >=7.5
4 | C[C@H](Cc1nncn1C)c1cccc(N2Cc3c(cc(CN4CC(F)C4)cc3C(F)(F)F)C2=O)c1 | >=1.001 | >=0.201 | 2.51 | >=7.5 | 1.01 | > 7.00 | 0.151 | 1.31 | > 7.00 | 1.01 | >=1.001 | >=7.5
5 | C[C@H](Cc1nncn1C)c1cccc(N2Cc3c(cc(CN4CCC(F)(F)C4)cc3C(F)(F)F)C2=O)c1 | >=1.001 | >=0.201 | 2.51 | 5 | 1.01 | > 7.00 | 0.151 | 1.31 | > 7.00 | 1.01 | >=1.001 | >=7.5
6 | C[C@H](Cc1nncn1C)c1cccc(N2Cc3c(cc(-n4cccn4)cc3C(F)(F)F)C2=O)c1 | >=1.001 | >=0.201 | 2.51 | >=7.5 | 1.51 | > 7.00 | >=0.201 | 1.51 | > 7.00 | 1.31 | >=1.001 | >=7.5
7 | C[C@H](Cc1nncn1C)c1cccc(N2Cc3c(cc(C(=O)N4CC[C@H](O)C4)cc3C(F)(F)F)C2=O)c1 | 0.801 | >=0.201 | 1.01 | 2.51 | 1.01 | > 7.00 | 0.151 | 1.31 | > 7.00 | 1.01 | >=1.001 | >=7.5
8 | Cn1cnnc1CC(C)(C)c1cccc(N2Cc3c(cc(C4CC4)cc3C(F)(F)F)C2=O)c1 | 0.801 | >=0.201 | 1.01 | 2.51 | 1.01 | > 7.00 | 0.101 | 1.31 | > 7.00 | 1.01 | >=1.001 | 5
9 | Cc1c[nH]nc1-c1cc2c(c(C(F)(F)F)c1)CN(c1cccc([C@H](C)Cc3nncn3C)c1)C2=O | 0.601 | >=0.201 | 1.01 | 5 | 1.51 | > 7.00 | >=0.201 | >=1.76 | > 7.00 | 1.31 | 0.801 | >=7.5
10 | C[C@H](Cc1nncn1C)c1cccc(N2Cc3c(cc([C@@H](C)N4CC[C@H](F)C4)cc3C(F)(F)F)C2=O)c1 | >=1.001 | >=0.201 | 5 | >=7.5 | 1.01 | > 7.00 | 0.151 | 1.31 | > 7.00 | 1.01 | >=1.001 | >=7.5
11 | C[C@H](Cc1nncn1C)c1cccc(N2Cc3c(cc(C(=O)N4C[C@@H](O)C[C@H]4C)cc3C(F)(F)F)C2=O)c1.O=C(O)C(F)(F)F | 0.801 | >=0.201 | 2.51 | 5 | 1.51 | > 7.00 | >=0.201 | >=1.76 | > 7.00 | 1.31 | >=1.001 | >=7.5
12 | CCNc1cc([C@H](C)Cc2nncn2C)cc(N2Cc3c(cccc3C(F)(F)F)C2=O)n1 | >=1.001 | >=0.201 | 2.51 | >=7.5 | 1.51 | > 7.00 | >=0.201 | 1.51 | > 7.00 | 1.31 | >=1.001 | >=7.5
13 | C[C@H](Cc1nncn1C)c1cccc(N2Cc3c(cc(N(C)[C@H]4CCNC4)cc3C(F)(F)F)C2=O)c1 | 0.801 | >=0.201 | 2.51 | 2.51 | 1.31 | > 7.00 | 0.151 | 1.51 | > 7.00 | 1.31 | >=1.001 | >=7.5
14 | Cn1cnnc1CC1(c2cccc(N3Cc4c(cc(CN5CCC(F)(F)C5)cc4C(F)(F)F)C3=O)c2)COC1 | >=1.001 | >=0.201 | 2.51 | >=7.5 | 1.01 | > 7.00 | >=0.201 | 1.01 | > 7.00 | 1.01 | >=1.001 | >=7.5
15 | C[C@H](Cc1nncn1C)c1cccc(NC(=O)c2cc(C3CC3)nc(C3CC3)n2)c1 | >=1.001 | >=0.201 | 2.51 | 5 | 1.51 | > 7.00 | >=0.201 | 1.51 | > 7.00 | 1.01 | >=1.001 | >=7.5
